From ChEMBL document CHEMBL4610053, “Synthesis and biological evaluation of 2-quinolineacrylamides” (Bioorg Med Chem, 2020)
Each block holds one molecule with its values, some of them ahead of it.

Tests used:
A549 = assay: Antiproliferative activity against human A549 cells assessed as reduction in cell viability incubated for 48 hrs by Sulforhodamine B assay; format: functional; settings: A549, 48 h
HCT-116 = assay: Antiproliferative activity against human HCT116 cells assessed as reduction in cell viability incubated for 48 hrs by Sulforhodamine B assay; format: functional; settings: HCT-116, 48 h
Histone deacetylase 2 = Histone deacetylase 2 (Homo sapiens, UniProt Q92769); assay: Inhibition of recombinant human C-terminal GST-tagged HDAC2 (1 to 488 residues) expressed in insect cells using RHK-K(Ac)-AMC as substrate measured after 60 mins by fluorescence assay
Homo sapiens [1] = species on record: Homo sapiens; assay: Selectivity ratio of IC50 for recombinant human C-terminal GST-tagged HDAC2 (1 to 488 residues) expressed in insect cells to IC50 of human HDAC6
[2] = target: T1, Protein deacetylase HDAC6 (Homo sapiens) (UniProt Q9UBN7); assay: Inhibition of HDAC6 in human HCT116 cells assessed as increase in tubulin acetylation measured after 48 hrs by Western blot analysis; format: cell-based; settings: HCT-116
T1 sequence (whole entry): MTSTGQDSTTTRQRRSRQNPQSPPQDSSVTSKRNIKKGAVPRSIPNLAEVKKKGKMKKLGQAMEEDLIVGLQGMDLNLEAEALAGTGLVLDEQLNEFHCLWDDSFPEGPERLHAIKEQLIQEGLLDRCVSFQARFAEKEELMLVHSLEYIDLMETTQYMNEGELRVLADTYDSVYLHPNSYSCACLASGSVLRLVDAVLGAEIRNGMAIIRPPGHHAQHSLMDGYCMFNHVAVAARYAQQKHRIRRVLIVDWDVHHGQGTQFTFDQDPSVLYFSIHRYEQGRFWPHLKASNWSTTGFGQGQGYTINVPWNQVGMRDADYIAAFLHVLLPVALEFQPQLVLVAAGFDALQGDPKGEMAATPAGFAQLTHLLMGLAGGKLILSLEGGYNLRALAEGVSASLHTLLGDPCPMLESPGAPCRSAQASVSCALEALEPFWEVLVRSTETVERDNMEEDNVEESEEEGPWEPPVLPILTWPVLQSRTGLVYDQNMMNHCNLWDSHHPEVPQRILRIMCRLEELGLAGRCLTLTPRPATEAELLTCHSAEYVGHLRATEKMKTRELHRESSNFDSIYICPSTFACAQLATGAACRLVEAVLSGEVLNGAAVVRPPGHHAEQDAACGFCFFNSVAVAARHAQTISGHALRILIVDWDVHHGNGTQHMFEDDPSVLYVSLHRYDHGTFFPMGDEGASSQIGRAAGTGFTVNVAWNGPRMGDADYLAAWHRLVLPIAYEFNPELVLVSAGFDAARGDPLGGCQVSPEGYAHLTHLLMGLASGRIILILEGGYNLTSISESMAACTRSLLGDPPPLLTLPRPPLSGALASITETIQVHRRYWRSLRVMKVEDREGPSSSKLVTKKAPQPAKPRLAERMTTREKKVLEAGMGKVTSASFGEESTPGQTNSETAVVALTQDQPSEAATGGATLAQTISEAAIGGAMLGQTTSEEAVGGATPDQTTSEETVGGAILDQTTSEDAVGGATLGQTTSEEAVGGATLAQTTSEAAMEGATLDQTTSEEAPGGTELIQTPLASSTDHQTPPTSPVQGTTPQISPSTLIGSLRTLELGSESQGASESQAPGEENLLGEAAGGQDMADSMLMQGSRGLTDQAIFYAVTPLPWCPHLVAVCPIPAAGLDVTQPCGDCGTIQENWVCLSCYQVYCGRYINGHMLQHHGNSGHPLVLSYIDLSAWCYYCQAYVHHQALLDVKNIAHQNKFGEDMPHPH

[3] = target: T2, Protein deacetylase HDAC6 (Homo sapiens, UniProt Q9UBN7); assay: Inhibition of human HDAC6 using fluorogenic-(RHKKAc) as substrate by fluorescence assay
T2 sequence (Q9UBN7 whole entry): T1 sequence (whole entry)

Histone deacetylase 8 = target: T3, Histone deacetylase 8 (Homo sapiens, UniProt Q9BY41); assay: Inhibition of recombinant human C-terminal His-tagged HDAC8 (1 to 377 residues) expressed in insect cells using RHK-K(Ac)-AMC as substrate measured after 60 mins by fluorescence assay
T3 sequence (Q9BY41 whole entry): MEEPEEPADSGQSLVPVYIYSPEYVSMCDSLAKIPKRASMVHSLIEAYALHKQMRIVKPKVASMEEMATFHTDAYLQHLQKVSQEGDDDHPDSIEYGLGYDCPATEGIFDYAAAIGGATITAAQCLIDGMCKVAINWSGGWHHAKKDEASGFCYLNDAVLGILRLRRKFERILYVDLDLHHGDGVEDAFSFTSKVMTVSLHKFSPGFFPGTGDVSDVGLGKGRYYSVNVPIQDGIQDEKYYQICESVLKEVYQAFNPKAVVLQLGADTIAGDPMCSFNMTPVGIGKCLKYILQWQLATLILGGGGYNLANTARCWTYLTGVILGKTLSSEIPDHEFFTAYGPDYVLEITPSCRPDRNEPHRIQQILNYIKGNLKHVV

[4] = target: Class 1 histone deacetylase (Homo sapiens) (UniProt Q13547+O15379+Q92769+Q9BY41); assay: Inhibition of class 1 HDAC in human HCT116 cells assessed as increase in H3 acetylation measured after 48 hrs by Western blot analysis; format: cell-based; settings: HCT-116
Homo sapiens [5] = species on record: Homo sapiens; assay: Selectivity ratio of IC50 for recombinant human C-terminal His-tagged HDAC8 (1 to 377 residues) expressed in insect cells to IC50 of human HDAC6
Histone deacetylase 1 = Histone deacetylase 1 (Homo sapiens, UniProt Q13547); assay: Inhibition of recombinant human C-terminal FLAG/His-tagged HDAC1 (1 to 482 residues) expressed in Sf21 insect cells by using RHK-K(Ac)-AMC as substrate measured after 60 mins by fluorescence assay
Homo sapiens [6] = species on record: Homo sapiens; assay: Selectivity ratio of IC50 for recombinant human C-terminal FLAG/His-tagged HDAC1 (1 to 482 residues) expressed in Sf21 insect cells to IC50 of human HDAC6

Histone deacetylase 2, sequence (Q92769 whole entry, the tested form may be a part): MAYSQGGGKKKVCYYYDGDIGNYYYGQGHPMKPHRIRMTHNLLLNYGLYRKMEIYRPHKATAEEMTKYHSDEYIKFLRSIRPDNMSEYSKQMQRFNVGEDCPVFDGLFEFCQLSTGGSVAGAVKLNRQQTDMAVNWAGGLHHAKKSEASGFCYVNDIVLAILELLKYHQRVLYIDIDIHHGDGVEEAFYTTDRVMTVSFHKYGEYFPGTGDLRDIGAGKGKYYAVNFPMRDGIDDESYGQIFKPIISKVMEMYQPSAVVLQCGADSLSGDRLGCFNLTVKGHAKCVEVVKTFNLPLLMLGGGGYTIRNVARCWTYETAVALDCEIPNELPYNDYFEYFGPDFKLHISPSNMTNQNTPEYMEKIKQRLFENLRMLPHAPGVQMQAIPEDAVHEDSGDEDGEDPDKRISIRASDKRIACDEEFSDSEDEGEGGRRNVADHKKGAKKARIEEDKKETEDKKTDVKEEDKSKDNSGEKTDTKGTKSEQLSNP
Histone deacetylase 1, sequence (Q13547 whole entry, the tested form may be a part): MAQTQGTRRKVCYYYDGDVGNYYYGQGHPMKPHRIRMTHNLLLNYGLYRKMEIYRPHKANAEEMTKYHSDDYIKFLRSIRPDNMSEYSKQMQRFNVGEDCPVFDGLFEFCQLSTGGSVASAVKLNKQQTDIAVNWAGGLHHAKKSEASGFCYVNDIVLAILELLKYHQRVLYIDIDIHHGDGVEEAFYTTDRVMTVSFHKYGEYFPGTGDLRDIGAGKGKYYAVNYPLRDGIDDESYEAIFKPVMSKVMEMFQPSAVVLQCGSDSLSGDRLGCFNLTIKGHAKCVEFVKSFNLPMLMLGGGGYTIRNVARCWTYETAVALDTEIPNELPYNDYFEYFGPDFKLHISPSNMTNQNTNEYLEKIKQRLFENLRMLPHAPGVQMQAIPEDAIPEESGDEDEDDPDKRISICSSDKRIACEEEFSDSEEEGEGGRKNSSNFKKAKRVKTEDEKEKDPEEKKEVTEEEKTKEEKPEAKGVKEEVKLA

SMILES: O=C(/C=C/c1ccc2cc(C(=O)c3ccc(F)cc3)ccc2n1)NO
GI50 (A549): 1260 nM
GI50 (HCT-116): 1840 nM

SMILES: O=C(CCCCCCC(=O)Nc1ccccc1)NO [VORINOSTAT]
GI50 (A549): 2620 nM
GI50 (HCT-116): 440 nM

SMILES: CN1CCc2c(c3ccccc3n2Cc2ccc(C(=O)NO)cc2)C1 [TUBASTATIN A]
GI50 (A549): > 5000 nM
GI50 (HCT-116): > 5000 nM

SMILES: O=C(/C=C/c1ccc2cc(-c3ccoc3)ccc2n1)NO
GI50 (A549): 1920 nM
GI50 (HCT-116): 1560 nM

SMILES: COc1cc(C(=O)c2ccc3nc(/C=C/C(=O)NO)ccc3c2)cc(OC)c1OC
GI50 (A549): 3350 nM
GI50 (HCT-116): 2620 nM

SMILES: Cc1ccc(C(=O)c2ccc3nc(/C=C/C(=O)NO)ccc3c2)cc1
GI50 (A549): 2580 nM
GI50 (HCT-116): 2510 nM

SMILES: COc1ccc(S(=O)(=O)Nc2ccc3nc(/C=C/C(=O)NO)ccc3c2)cc1
GI50 (A549): 4310 nM
GI50 (HCT-116): 6680 nM

SMILES: COc1ccc(C(=O)c2ccc3nc(/C=C/C(=O)NO)ccc3c2)cc1OC
GI50 (A549): 3310 nM
GI50 (HCT-116): 1780 nM

Further lines, with some results ahead:

GI50 (A549): 3280 nM
GI50 (HCT-116): 4080 nM
SMILES: CC(C)c1ccc(Oc2ccc3nc(/C=C/C(=O)NO)ccc3c2)cc1

GI50 (A549): 1890 nM
GI50 (HCT-116): 2300 nM
SMILES: COc1ccc(C(=O)c2ccc3nc(/C=C/C(=O)NO)ccc3c2)cc1

GI50 (A549): 2430 nM
IC50 (Histone deacetylase 2; read-out: IC50): 18.7 nM
inhibition [2]: Dose-dependent effect
IC50 [3]: 26.5 nM
IC50 (Histone deacetylase 8): 2820 nM
GI50 (HCT-116): 740 nM
inhibition [4]: Dose-dependent effect
IC50 (Histone deacetylase 1; read-out: IC50): 1770 nM
SMILES: COc1cc(Oc2ccc3nc(/C=C/C(=O)NO)ccc3c2)cc(OC)c1OC
Ratio IC50 (Homo sapiens [1]): 0.7
Ratio IC50 (Homo sapiens [5]): 106
Ratio IC50 (Homo sapiens [6]): 67

GI50 (A549): 1630 nM
IC50 (Histone deacetylase 2): Not Active
inhibition [2]: Dose-dependent effect
IC50 [3]: 51.4 nM
IC50 (Histone deacetylase 8): 2320 nM
GI50 (HCT-116): 1000 nM
inhibition [4]: Dose-dependent effect
IC50 (Histone deacetylase 1; read-out: IC50): 6050 nM
SMILES: O=C(/C=C/c1ccc2cc(Oc3ccc([N+](=O)[O-])cc3)ccc2n1)NO
Ratio IC50 (Homo sapiens [5]): 45
Ratio IC50 (Homo sapiens [6]): 118

GI50 (A549): 4350 nM
GI50 (HCT-116): 2740 nM
SMILES: COc1cccc(Oc2ccc3nc(/C=C/C(=O)NO)ccc3c2)c1

GI50 (A549): 2350 nM
IC50 (Histone deacetylase 2; read-out: IC50): 1310 nM
inhibition [2]: Dose-dependent effect
IC50 [3]: 49 nM
IC50 (Histone deacetylase 8): 4770 nM
GI50 (HCT-116): 1470 nM
inhibition [4]: Dose-dependent effect
IC50 (Histone deacetylase 1; sf21): Not Active
SMILES: COc1ccc(-c2ccc3nc(/C=C/C(=O)NO)ccc3c2)cc1
Ratio IC50 (Homo sapiens [1]): 27
Ratio IC50 (Homo sapiens [5]): 97

GI50 (A549): 3200 nM
IC50 (Histone deacetylase 2): Not Active
inhibition [2]: Dose-dependent effect
IC50 [3]: 20.7 nM
IC50 (Histone deacetylase 8): 7750 nM
GI50 (HCT-116): 1820 nM
inhibition [4]: Dose-dependent effect
IC50 (Histone deacetylase 1; read-out: IC50): > 10000 nM
SMILES: COc1ccc(Oc2ccc3nc(/C=C/C(=O)NO)ccc3c2)cc1
Ratio IC50 (Homo sapiens [5]): 374
Ratio IC50 (Homo sapiens [6]): > 483
